# From patent publication US20240307589A1, “LEPTIN RECEPTOR AFFINITY PEPTIDE AND USE THEREOF” (Dubu Biosciences, priority 2021, published 2024)
# No end group written: not given here. *: point of attachment. FITC = O=C1OC2(c3ccc(O)cc3Oc3cc(O)ccc32)c2ccc(NC(=S)*)cc21
# Legend:
# rat MSCs = test: Binding of FITC-labeled peptide to rat MSCs by flow cytometry; format: cell-based; conditions: FITC-labeled peptides, vs M7, FIG. 4
# Excerpt: To evaluate the species specificity of the HY7 peptide and provide a basis for subsequent animal experiments, the binding of HY7 to rat MSCs was specifically verified. Rat bone marrow cells were acquired according to a conventional method and subjected to culture and identification, and rat MSCs were obtained. The binding of an FITC-HY7 peptide and an FITC-M7 peptide to the rat MSCs was detected according to the above flow cytometry detection method.
# human MSCs = test: Binding recovery of phage to human MSCs (elution and titration); format: cell-based; conditions: vs M13KE negative control phage, FIG. 2A
# Method: (§1) An HY7 phage monoclone and an M13KE negative control phage were amplified with reference to the method in Example 1 and titrated. The HY7 phage monoclone and the M13KE negative control phage were added to well plates containing human MSCs with a confluence pre-cultured to about 80%, and an unrelated human bone marrow stromal cell line HS-5 was set as a control. The HY7 phage monoclone and the M13KE negative control phage were subjected to binding and elution according to a step of screening phages to obtain an eluent of the HY7 phage binding to the target protein and an eluent of the M13KE negative control phage binding to the target protein, respectively. The eluent of the HY7 phage binding to the target protein and the eluent of the M13KE negative control phage binding to the target protein were titrated according to a phage titration method. The binding of the HY7 phage monoclone to the target molecule and the binding of the M13KE negative control phage to the target molecule were compared. […] FIG. 2A is a schematic diagram illustrating the binding recovery of an HY7 phage monoclone and an M13KE negative control phage to human MSCs, and FIG. 2B is a schematic diagram illustrating the binding recovery of an HY7 phage monoclone and an M13KE negative control phage to HS-5 cells.
# [1] = test system: human bone marrow stromal cell line HS-5; test: Binding recovery of phage to control HS-5 cells (elution and titration); format: cell-based; conditions: FIG. 2B
# Method: as §1
# rat lung injury site = test: Recruitment of endogenous MSCs to peptide-bound collagen sponge implanted into rat lung injury site (flow cytometry); format: in vivo; conditions: rat lung defect, 12 h, 24 h or 48 h after implantation, vs control groups; FIGS. 6A to 6F
# Method: Rats weighing about 150 g were anesthetized, intubated and subjected to partial resection on middle lobes of right lungs in the case of positive pressure ventilation of ventilators, where lung tissues with a size of about 0.5 cm*0.5 cm*0.3 cm were resected, and the collagen sponges which had been uniformly added dropwise with the CBD-affinity peptide or the control peptides and incubated for 2 h at 37° C. in advance were implanted into rat lung defect sites, respectively. After the rats were sacrificed after 12 h, 24 h or 48 h, respectively, the implanted collagen sponges were completely separated and taken out. The collagen sponges were dissolved with a collagenase, and cells adsorbed on the collagen sponges in vivo were separated and collected. Through identification of expression of CD45, CD44, CD71 and CD90 on surfaces of the cells, proportions of the numbers of MSCs adsorbed on the collagen sponges at the implantation sites were analyzed. The proportions that the MSCs accounted for in the cells digested from the collagen sponges were detected by flow cytometry.
# rat lung injury sites = test: Lung injury repair after implantation of peptide-bound collagen sponge (Masson's staining); format: in vivo; conditions: 35 days after implantation, vs control groups, FIG. 7
# Excerpt: After a CBD-affinity peptide and control peptides were implanted into rat lung injury sites according to the above method, lung tissues were taken out 35 days later and subjected to pathological identification.
Substance,binding ability to the rat MSCs (rat MSCs),binding to surfaces of the MSCs (binding recovery) (human MSCs),binding to the control cells HS-5 (binding recovery) [1],MSCs adsorbed to the collagen sponge (proportion of MSCs in cells digested from sponge) (rat lung injury site),repair effect at the tissue site (rat lung injury sites)
HGGVRLY (Leptin receptor affinity peptide) [HY7],significantly stronger than that of M7,can specifically binds to surfaces of the MSCs,does not bind,–,–
CBD-HY7: CBD (TKKTLRT) on the N-terminus of HY7 through a linker (GGGGS or GGG-K-FITC) (TKKTLRTGGGK(FITC)HGGVRLY),–,–,–,can adsorb more MSCs to the collagen sponge in a short time,better repair effect
